# Measured values: US20110195929A1, “COMPOUNDS FOR THE TREATMENT OF FLAVIVIRAL INFECTIONS” (SUMMIT CORPORATION PLC, priority 2008, published 2011)
# Where two headings read alike, the source gives them in different places.
# System: HCV
# Assay: Cell-based HCV infection NS3 protease FRET assay in DMSO-Huh7 cells; also: test concentration or dose not given here
# Parameters: species or system hepatitis C virus (HCV)
# [1] = DMSO-Huh7 cells infected with HCV at 0.05 ffu/cell, HCV NS3 protein levels by FRET, day 6 p.i.
SMILES,Ave % inhibition,Ave % inhibition [1]
"C[C@@H]1CC[C@@H]2[C@@H](O)[C@H](O)[C@@H](CO)N12 [Compound 14, (1R,2R,3R,5R,7aR)-3-(hydroxymethyl)-5-methylhexahydro-1H-pyrrolizine-1,2-diol]",+ (+: ≦19%),
"OC[C@H]1N[C@H](CO)[C@@H](O)[C@H](O)[C@H]1O [Compound 15, (2R,3S,4R,5R,6R)-2,6-bis(hydroxymethyl)piperidine-3,4,5-triol]",,++ (++: 20-39%)
"CCCC(=O)O[C@H]1CN2CC[C@H](O)C2[C@@H](O)[C@@H]1O (stereo partly drawn) [Compound 46, (1S,6S,7S,8R)-1,7,8-trihydroxyoctahydroindolizin-6-yl butyrate]",,++ (++: 20-39%)
"CC[C@@H]1NC[C@@H](O)[C@H](O)[C@H]1O [Compound 72, (2S,3S,4S,5R)-2-ethylpiperidine-3,4,5-triol]",,++ (++: 20-39%)
"[O-][N@@+]12C[C@H](O)[C@H](O)[C@@H]1[C@@H](O)[C@H](O)[C@@H]2CO [Compound 81, (1R,2R,3S,4R,6S,7R,7aR)-1,2,6,7-tetrahydroxy-3-(hydroxymethyl)octahydropyrrolizine 4-oxide]",++ (++: 20-39%),
"O=C(O)[C@@]1(O)CNC[C@@H](O)[C@H]1O [Compound 87, (3R,4R,5R)-3,4,5-trihydroxypiperidine-3-carboxylic acid]",,+++ (+++: 40-59%)
"CCCCN1C[C@H](O)[C@@H](O)[C@H](O)[C@H]1CO [Compound 118, (2R,3R,4R,5S)-1-butyl-2-(hydroxymethyl)piperidine-3,4,5-triol]",,++ (++: 20-39%)
"C[C@H]1N[C@@H](CO)[C@H](O)[C@H]1O [Compound 119, (2S,3S,4S,5R)-2-(hydroxymethyl)-5-methylpyrrolidine-3,4-diol]",,++ (++: 20-39%)
"CCCC(=O)OC[C@@H]1[C@@H](OC(=O)CCC)[C@H](OC(=O)CCC)[C@H]2[C@H](OC(=O)CCC)[C@@H](OC(=O)CCC)CN21 [Compound 132, (1R,2R,3R,6S,7S,7aR)-3-(butyryloxymethyl)hexahydro-1H-pyrrolizine-1,2,6,7-tetrayl tetrabutyrate]",,++ (++: 20-39%)
"CC(=O)OC[C@H]1[C@@H](OC(C)=O)[C@H](OC(C)=O)[C@H]2[C@H](OC(C)=O)[C@@H](OC(C)=O)CN21 [Compound 136, (1R,2R,3S,6S,7S,7aR)-3-(acetoxymethyl)hexahydro-1H-pyrrolizine-1,2,6,7-tetrayl tetraacetate]",,++ (++: 20-39%)
"CC(=O)OC[C@H]1[C@@H](OC(C)=O)[C@H](OC(C)=O)[C@H]2[C@@H](OC(C)=O)[C@@H](OC(C)=O)CN21 [Compound 144, (1R,2R,3S,6S,7R,7aR)-3-(acetoxymethyl)hexahydro-1H-pyrrolizine-1,2,6,7-tetrayl tetraacetate]",,++ (++: 20-39%)
"OCCN1C[C@@H](O)[C@@H](O)[C@H]1[C@H](O)CO [Compound 145, (2R,3S,4R)-2-((S)-1,2-dihydroxyethyl)-1-(2-hydroxyethyl)pyrrolidine-3,4-diol]",,+++ (+++: 40-59%)
"C[C@H]1C[C@@H](O)[C@@H]2[C@H](O)[C@H](O)[C@@H](CO)N21 [Compound 149, (1S,2R,3R,5S,7R,7aR)-3-(hydroxymethyl)-5-methylhexahydro-1H-pyrrolizine-1,2,7-triol]",++ (++: 20-39%),
"O[C@@H]1[C@@H]2[C@@H](O)CCCN2C[C@@H]1O [Compound 153, (1R,2S,8S,8aS)-octahydroindolizine-1,2,8-triol]",,++ (++: 20-39%)
"OC[C@@H](O)[C@@H]1NC[C@H](O)[C@@H]1O [Compound 155, (2S,3R,4S)-2-((S)-1,2-dihydroxyethyl)pyrrolidine-3,4-diol]",++ (++: 20-39%),
"CCCCN1C[C@H](O)[C@H](O)[C@@H]1CO [Compound 162, (2S,3R,4S)-1-butyl-2-(hydroxymethyl)pyrrolidine-3,4-diol]",,++ (++: 20-39%)
"CCCCN1C[C@@H](N=[N+]=[N-])C[C@H]1CO [Compound 275, ((2S,4S)-4-azido-1-butylpyrrolidin-2-yl)methanol]",,++ (++: 20-39%)
"CCCCCCCCCN1C[C@@H](O)[C@@H](O)[C@@H]1[C@@H](O)CO [Compound 316, (2S,3S,4R)-2-((R)-1,2-dihydroxyethyl)-1-nonylpyrrolidine-3,4-diol]",,+++ (+++: 40-59%)
"CCCCCCCCCN1C[C@H](NC(C)=O)[C@@H](O)[C@@H]1CO [Compound 338, N-((3S,4R,5S)-4-hydroxy-5-(hydroxymethyl)-1-nonylpyrrolidin-3-yl)acetamide]",,++ (++: 20-39%)
"CCCCCCCCCN1C[C@@H](NC(C)=O)C[C@H]1CO [Compound 348, N-((3S,5S)-5-(hydroxymethyl)-1-nonylpyrrolidin-3-yl)acetamide]",,++++ (++++: 60-79%)
"CCCCCCCCCN1C[C@H](O)[C@H](O)[C@@H]1[C@@H](O)[C@H](O)CO [Compound 404, (1R,2R)-1-((2R,3R,4S)-3,4-dihydroxy-1-nonylpyrrolidin-2-yl)propane-1,2,3-triol]",,+++ (+++: 40-59%)

SMILES,Ave % inhibition,Ave % inhibition [1]
"CCCCCCCCCN1C[C@@H](O)[C@@H](O)[C@@H]1[C@H](O)CO [Compound 427, (2S,3S,4R)-2-((S)-1,2-dihydroxyethyl)-1-nonylpyrrolidine-3,4-diol]",,+++ (+++: 40-59%)
"O=C(O)[C@H]1C[C@H](O)CN1 [Compound 477, trans-4-Hydroxy-D-proline]",+ (+: ≦19%),
"CC1(C)O[C@H]2[C@H](CN(Cc3ccccc3)[C@@H]2CN)O1 [Compound 483, ((3aR,4R,6aS)-5-benzyl-2,2-dimethyltetrahydro-3aH-[1,3]dioxolo[4,5-c]pyrrol-4-yl)methanamine]",,++ (++: 20-39%)
"O=C(O)CCCN1C[C@@H](O)[C@H](O)[C@H]1CO [Compound 499, 4-[(2R,3R,4R)-3,4-dihydroxy-2-(hydroxymethyl)pyrrolidin-1-yl]butanoic acid]",,++ (++: 20-39%)
"OC[C@H]1[C@H](O)[C@@H](O)CN1Cc1ccccc1 [Compound 500, (2S,3S,4S)-1-benzyl-2-(hydroxymethyl)pyrrolidine-3,4-diol]",,++ (++: 20-39%)
"C[C@@]1(C(=O)O)NC[C@H](O)[C@H]1O [Compound 504, (2R,3S,4S)-3,4-dihydroxy-2-methylpyrrolidine-2-carboxylic acid]",,++ (++: 20-39%)
"[N-]=[N+]=NC[C@H]1[C@@H](O)[C@@H](O)CN1Cc1ccccc1 [Compound 506, (2S,3R,4S)-2-(azidomethyl)-1-benzylpyrrolidine-3,4-diol]",,+++ (+++: 40-59%)
"CC(=O)NC[C@@H]1[C@@H](O)[C@@H](O)CN1CCCCCCCCCO [Compound 511, N-(((2R,3R,4S)-3,4-dihydroxy-1-(9-hydroxynonyl)pyrrolidin-2-yl)methyl)acetamide]",,++ (++: 20-39%)
"CCCCCCCCCN1C[C@H](O)[C@H](O)[C@H]1CNC(C)=O [Compound 512, N-(((2R,3R,4S)-3,4-dihydroxy-1-nonylpyrrolidin-2-yl)methyl)acetamide]",,+++ (+++: 40-59%)
"O=C(O)CN1C[C@H](O)[C@H](O)[C@@H]1[C@@H](O)[C@H](O)[C@H](O)CO [Compound 530, 2-((2R,3R,4S)-3,4-dihydroxy-2-((1R,2S,3R)-1,2,3,4-tetrahydroxybutyl)pyrrolidin-1-yl)acetic acid]",,++ (++: 20-39%)
"CCCCCCCCCN1C[C@H](O)[C@@H](O)[C@H](O)[C@H]1CO [Compound 550, (2R,3R,4R,5S)-2-(hydroxymethyl)-1-nonylpiperidine-3,4,5-triol]",++ (++: 20-39%),
"OCCCCCCCCCN1[C@H](CO)[C@@H](O)[C@H](O)[C@H]1CO [Compound 557, (2R,3R,4R,5R)-2,5-bis(hydroxymethyl)-1-(9-hydroxynonyl)pyrrolidine-3,4-diol]",,++ (++: 20-39%)
"OC[C@@H]1[C@@H](O)[C@H](O)[C@@H](CO)N1Cc1ccc(-c2ccccc2)cc1 [Compound 558, (2R,3R,4R,5R)-1-(biphenyl-4-ylmethyl)-2,5-bis(hydroxymethyl)pyrrolidine-3,4-diol]",,+++ (+++: 40-59%)
"OC[C@@H]1[C@@H](O)[C@H](O)[C@@H](CO)N1Cc1ccc(-c2ccccc2)cc1 [Compound 559, (2R,3R,4R,5R)-1-(biphenyl-4-ylmethyl)-2,5-bis(hydroxymethyl)pyrrolidine-3,4-diol]",,++++ (++++: 60-79%)
"C[C@@H](N)CCC[C@@H]1N[C@@H](CO)[C@H](O)[C@H]1O [Compound 561, (2S,3S,4S,5S)-2-((R)-4-aminopentyl)-5-(hydroxymethyl)pyrrolidine-3,4-diol]",,++++ (++++: 60-79%)
"C[C@H](N)CCC[C@@H]1N[C@@H](CO)[C@H](O)[C@H]1O [Compound 562, (2S,3S,4S,5S)-2-((S)-4-aminopentyl)-5-(hydroxymethyl)pyrrolidine-3,4-diol]",,++++ (++++: 60-79%)
"CC(=O)N[C@@H]1CNC[C@@H](O)[C@H]1O [Compound 563, N-((3R,4S,5R)-4,5-dihydroxypiperidin-3-yl)acetamide]",,++++ (++++: 60-79%)
"CCCCCCCCCN1C[C@H](O)[C@H](O)[C@@H]1CNC(C)=O [Compound 587, N-(((2S,3R,4S)-3,4-dihydroxy-1-nonylpyrrolidin-2-yl)methyl)acetamide]",,+++ (+++: 40-59%)
"CC(=O)NC[C@H]1[C@@H](O)[C@@H](O)CN1CCN1CCCCC1 [Compound 616, N-(((2S,3R,4S)-3,4-dihydroxy-1-(2-(piperidin-1-yl)ethyl)pyrrolidin-2-yl)methyl)acetamide]",,++ (++: 20-39%)
"CCCCCCCCCN1C[C@H](O)[C@H](O)[C@@H]1CNC(=O)c1ccccc1 [Compound 622, N-(((2S,3R,4S)-3,4-dihydroxy-1-nonylpyrrolidin-2-yl)methyl)benzamide]",,+++++ (+++++: ≧80%)
"OC[C@H]1[C@H](O)[C@H](O)CN1Cc1ccc(-c2ccccc2)cc1 [Compound 623, (2S,3S,4R)-1-(biphenyl-4-ylmethyl)-2-(hydroxymethyl)pyrrolidine-3,4-diol]",,++ (++: 20-39%)
